In patent publication US8361715B2, “Method for suppressing a FRET signal, FRET signal suppressor agents and use in a method for multiplexing biological events” (CIS Bio International, priority 2006, dated 2013):

How the values were obtained:
[1] = system: trisbipyridine cryptate TBP; settings: TBP donor, d2 acceptor; 20 mM; incubation 16 h at ambient temperature
Description: Two identical experiments aimed at detecting a GST-biotin protein were carried out. In each of the experiments, a particular rare earth complex was used as FRET donor: either the trisbipyridine cryptate TBP or a terbium chelate sold in a form conjugated to an anti-GST antibody by the company Invitrogen (Cat no. PV3568).
The biotinylated GST protein was dispensed into a 96-well plate. Its presence was detected by FRET between the donor (the TBP or the terbium chelate) (carried by an anti-GST antibody) and the d2 acceptor (carried by streptavidin), after incubation for 16 h at ambient temperature in the presence or absence of 20 mM of manganese chloride (MnCl2) or of EDTA. A time-resolved fluorescence measurement is carried out (td=50 μs, tg=400 μs) at 620 nm and 665 nm (respectively E620 and E665) on a Rubystar® machine (BMG Labtech). Based on the fluorescence intensity values, E620 and E665, the E665/E620 intensity ratio is calculated and multiplied by 10 000 for greater convenience. […] In order to compare the delta F values obtained in the various media for the same donor, said values are normalized relative to the delta F obtained in buffer (100%).

[2] = system: pyridine-bis(bipyridine) cryptate PBP4COOH; assay: FRET between PBP4COOH donor and d2 acceptor (biotinylated GST detection) with uric acid; settings: PBP4COOH donor, 60 μM, incubation 16 h at ambient temperature
Description: (§1) In each of the experiments, a particular rare earth complex was used as FRET donor: either the trisbipyridine cryptate TBP or a pyridine-bis(bipyridine) cryptate PBP4COOH of formula: […]
(§2) Its presence was detected via FRET between the donor (the TBP or PBP4COOH) (carried by the anti-GST antibody) and the d2 acceptor (carried by streptavidin), after incubation for 16 h at ambient temperature in the presence or absence of 60 μM of uric acid. A time-resolved fluorescence measurement (td=50 μs, tg=400 μs) is carried out at 620 nm and 665 nm (E620 and E665, respectively) on a Rubystar® machine (BMG Labtech).
(§3) • 1.25 nM biotinylated GST; 2 nM anti-GST; 5 nM streptavidin; • 60 μm uric acid. Final reaction volume: 200 μl Buffer: 100 mM phosphate, pH 7.0, 0.10% BSA. Results

europium cryptate TBP = assay: FRET between TBP donor and d2 acceptor (biotinylated GST detection) with uric acid; settings: TBP donor, 60 μM, incubation 16 h at ambient temperature
Description: as §1, §2, §3

## O=C(O)CN(CCN(CC(=O)O)CC(=O)O)CC(=O)O [EDTA]
[1]
  FRET signal (normalized delta F): does not modify

## O=c1[nH]c(=O)c2[nH]c(=O)[nH]c2[nH]1 [uric acid]
[2]
  FRET signal (normalized delta F): does not modify
Europium cryptate TBP
  FRET signal inhibited: more than 85%

## manganese chloride [MnCl2]
[1]
  FRET signal (normalized delta F): does not modify
